Consider 18 molecules from patent US7256007B2, “Methods of regulating cytokine signalling” (The Walter and Eliza Hall Institute of Medical Research, priority 2000, dated 2007).

The labels stand for the following.
T1: SOCS-3 (Mus musculus, UniProt O35718)
T1 construct: hexahistidine (pET15b) (N); made in house; host or cells: E. coli BL21 DE3 pLysS
T1 sequence (O35718 1-225): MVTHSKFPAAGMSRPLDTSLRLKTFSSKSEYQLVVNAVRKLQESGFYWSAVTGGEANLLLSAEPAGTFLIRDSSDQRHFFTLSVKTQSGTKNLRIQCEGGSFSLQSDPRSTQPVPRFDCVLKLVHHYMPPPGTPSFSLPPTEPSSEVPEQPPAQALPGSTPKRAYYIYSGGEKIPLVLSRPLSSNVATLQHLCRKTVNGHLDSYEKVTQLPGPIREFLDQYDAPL

T2: SOCS-3 (recombinant, His-tagged) (mouse, UniProt O35718)
T2 chain: T1 sequence (O35718 1-225)

B1: gp130 phosphopeptide V12A (peptide)
chain: STASTVE[pY]STVAHSG-NH2
modifications: N-terminus assumed
SMILES: CC(C)[C@H](NC(=O)[C@@H](NC(=O)[C@H](CO)NC(=O)[C@H](Cc1ccc(OP(=O)(O)O)cc1)NC(=O)[C@H](CCC(=O)O)NC(=O)[C@@H](NC(=O)[C@@H](NC(=O)[C@H](CO)NC(=O)[C@H](C)NC(=O)[C@@H](NC(=O)[C@@H](N)CO)[C@@H](C)O)[C@@H](C)O)C(C)C)[C@@H](C)O)C(=O)N[C@@H](C)C(=O)N[C@@H](Cc1c[nH]cn1)C(=O)N[C@@H](CO)C(=O)NCC(N)=O
B2: AcE(pY)STVVHSG (peptide)
chain: Ac-E[pY]STVVHSG-NH2
SMILES: CC(=O)N[C@@H](CCC(=O)O)C(=O)N[C@@H](Cc1ccc(OP(=O)(O)O)cc1)C(=O)N[C@@H](CO)C(=O)N[C@H](C(=O)N[C@H](C(=O)N[C@H](C(=O)N[C@@H](Cc1c[nH]cn1)C(=O)N[C@@H](CO)C(=O)NCC(N)=O)C(C)C)C(C)C)[C@@H](C)O
B3: gp130 phosphopeptide H13A (peptide)
chain: STASTVE[pY]STVVASG-NH2
modifications: N-terminus assumed
SMILES: CC(C)[C@H](NC(=O)[C@@H](NC(=O)[C@@H](NC(=O)[C@H](CO)NC(=O)[C@H](Cc1ccc(OP(=O)(O)O)cc1)NC(=O)[C@H](CCC(=O)O)NC(=O)[C@@H](NC(=O)[C@@H](NC(=O)[C@H](CO)NC(=O)[C@H](C)NC(=O)[C@@H](NC(=O)[C@@H](N)CO)[C@@H](C)O)[C@@H](C)O)C(C)C)[C@@H](C)O)C(C)C)C(=O)N[C@@H](C)C(=O)N[C@@H](CO)C(=O)NCC(N)=O
B4: AcTVE(pY)STVVHSG (peptide)
chain: Ac-TVE[pY]STVVHSG-NH2
SMILES: CC(=O)N[C@H](C(=O)N[C@H](C(=O)N[C@@H](CCC(=O)O)C(=O)N[C@@H](Cc1ccc(OP(=O)(O)O)cc1)C(=O)N[C@@H](CO)C(=O)N[C@H](C(=O)N[C@H](C(=O)N[C@H](C(=O)N[C@@H](Cc1c[nH]cn1)C(=O)N[C@@H](CO)C(=O)NCC(N)=O)C(C)C)C(C)C)[C@@H](C)O)C(C)C)[C@@H](C)O
B5: AcVA(pY)STVVHSG (peptide)
chain: Ac-VA[pY]STVVHSG-NH2
SMILES: CC(=O)N[C@H](C(=O)N[C@@H](C)C(=O)N[C@@H](Cc1ccc(OP(=O)(O)O)cc1)C(=O)N[C@@H](CO)C(=O)N[C@H](C(=O)N[C@H](C(=O)N[C@H](C(=O)N[C@@H](Cc1c[nH]cn1)C(=O)N[C@@H](CO)C(=O)NCC(N)=O)C(C)C)C(C)C)[C@@H](C)O)C(C)C
B6: Ac(pY)STVVHSG (peptide)
chain: Ac-[pY]STVVHSG-NH2
SMILES: CC(=O)N[C@@H](Cc1ccc(OP(=O)(O)O)cc1)C(=O)N[C@@H](CO)C(=O)N[C@H](C(=O)N[C@H](C(=O)N[C@H](C(=O)N[C@@H](Cc1c[nH]cn1)C(=O)N[C@@H](CO)C(=O)NCC(N)=O)C(C)C)C(C)C)[C@@H](C)O

Square brackets hold non-standard residues; d marks the D form. Ends that are not written are not given here. Peptide text beside a SMILES is read from it. pY = N[C@@H](Cc1ccc(OP(=O)(O)O)cc1)C(=O)O

One assay concerns the target T1, SOCS-3. Nature of the assay: Competitive binding assay on the Biosensor: soluble peptide displaces SOCS-3 from immobilized gp130 (750-764) phosphopeptide. Also on record: species or system murine. The note with it: IC50, Table 2, gp130(750-764) phosphopeptide and analogues. How it is done: Purified protein was refolded by dialysis into PBS containing 2 mM DTT, 2 mM EDTA and 0.02% v/v Tween 20. Refolded material was purified to homogeneity by ion exchange chromatography on a Mono S column (Pharmacia).
Samples were left overnight at 4° C. prior to analysis on the Biosensor so that the rate of protein loss due to absorption was minimal through the course of the experiment.
The inventors also used this competition assay to reassess the potential solution binding of the phosphopeptides listed in FIG. 1A.
In the case of `CC(C)[C@H](NC(=O)[C@@H](NC(=O)[C@H](CO)NC(=O)[C@H](Cc1ccc(OP(=O)(O)O)cc1)NC(=O)[C@H](CCC(=O)O)NC(=O)[C@@H](NC(=O)[C@@H](NC(=O)[C@H](CO)NC(=O)[C@H](C)NC(=O)[C@@H](NC(=O)[C@@H](N)CO)[C@@H](C)O)[C@@H](C)O)C(C)C)[C@@H](C)O)C(=O)N[C@@H](C)C(=O)N[C@@H](Cc1c[nH]cn1)C(=O)N[C@@H](CO)C(=O)NCC(N)=O` [STASTVE(pY)STVAHSG] (H-STASTVE[pY]STVAHSG-NH2; N-terminus assumed), the IC50 (as a rule, the point on the concentration scale where inhibition reaches its midpoint) stood at 1100 nM. Still for that read-out and setting: the value for `CC(C)[C@H](NC(=O)[C@@H](NC(=O)[C@@H](NC(=O)[C@H](CO)NC(=O)[C@H](Cc1ccc(OP(=O)(O)O)cc1)NC(=O)[C@H](CCC(=O)O)NC(=O)[C@@H](NC(=O)[C@@H](NC(=O)[C@H](CO)NC(=O)[C@H](C)NC(=O)[C@@H](NC(=O)[C@@H](N)CO)[C@@H](C)O)[C@@H](C)O)C(C)C)[C@@H](C)O)C(C)C)C(N)=O` [STASTVE(pY)STVV] (H-STASTVE[pY]STVV-NH2; N-terminus assumed) was 1100 nM.

Still in this assay, the particulars now being: relative to gp130 (750-764) parent phosphopeptide.
Consider `CC(=O)N[C@@H](Cc1ccc(OP(=O)(O)O)cc1)C(=O)N[C@@H](CO)C(=O)N[C@H](C(=O)N[C@H](C(=O)N[C@H](C(=O)N[C@@H](Cc1c[nH]cn1)C(=O)N[C@@H](CO)C(=O)NCC(N)=O)C(C)C)C(C)C)[C@@H](C)O` [Ac(pY)STVVHSG] (Ac-[pY]STVVHSG-NH2), for which the “IC50 analogue/IC50 wild-type” value stood at 87. Still for that read-out and setting: the value for `CC(=O)N[C@@H](C)C(=O)N[C@@H](CCC(=O)O)C(=O)N[C@@H](Cc1ccc(OP(=O)(O)O)cc1)C(=O)N[C@@H](CO)C(=O)N[C@H](C(=O)N[C@H](C(=O)N[C@H](C(=O)N[C@@H](Cc1c[nH]cn1)C(=O)N[C@@H](CO)C(=O)NCC(N)=O)C(C)C)C(C)C)[C@@H](C)O` [AcAE(pY)STVVHSG] (Ac-AE[pY]STVVHSG-NH2) was 5.3. On the same count and under the same terms, the value for `CC(=O)N[C@@H](CCC(=O)O)C(=O)N[C@@H](Cc1ccc(OP(=O)(O)O)cc1)C(=O)N[C@@H](CO)C(=O)N[C@H](C(=O)N[C@H](C(=O)N[C@H](C(=O)N[C@@H](Cc1c[nH]cn1)C(=O)N[C@@H](CO)C(=O)NCC(N)=O)C(C)C)C(C)C)[C@@H](C)O` [AcE(pY)STVVHSG] (Ac-E[pY]STVVHSG-NH2) was 8.8; that for `CC(=O)N[C@H](C(=O)N[C@H](C(=O)N[C@@H](CCC(=O)O)C(=O)N[C@@H](Cc1ccc(OP(=O)(O)O)cc1)C(=O)N[C@@H](CO)C(=O)N[C@H](C(=O)N[C@H](C(=O)N[C@H](C(=O)N[C@@H](Cc1c[nH]cn1)C(=O)N[C@@H](CO)C(=O)NCC(N)=O)C(C)C)C(C)C)[C@@H](C)O)C(C)C)[C@@H](C)O` [AcTVE(pY)STVVHSG] was 1.1. Same read-out and setting: the value for `CC(=O)N[C@H](C(=O)N[C@@H](C)C(=O)N[C@@H](Cc1ccc(OP(=O)(O)O)cc1)C(=O)N[C@@H](CO)C(=O)N[C@H](C(=O)N[C@H](C(=O)N[C@H](C(=O)N[C@@H](Cc1c[nH]cn1)C(=O)N[C@@H](CO)C(=O)NCC(N)=O)C(C)C)C(C)C)[C@@H](C)O)C(C)C` [AcVA(pY)STVVHSG] (Ac-VA[pY]STVVHSG-NH2) was 5.0. As to `CC(C)[C@H](NC(=O)[C@@H](NC(=O)[C@@H](NC(=O)[C@H](C)NC(=O)[C@H](Cc1ccc(OP(=O)(O)O)cc1)NC(=O)[C@H](CCC(=O)O)NC(=O)[C@@H](NC(=O)[C@@H](NC(=O)[C@H](CO)NC(=O)[C@H](C)NC(=O)[C@@H](NC(=O)[C@@H](N)CO)[C@@H](C)O)[C@@H](C)O)C(C)C)[C@@H](C)O)C(C)C)C(=O)N[C@@H](Cc1c[nH]cn1)C(=O)N[C@@H](CO)C(=O)NCC(N)=O` [STASTVE(pY)ATVVHSG] (H-STASTVE[pY]ATVVHSG-NH2; N-terminus assumed), the “IC50 analogue/IC50 wild-type” value worked out at 0.65. Still for that read-out and setting: the value for `CC(C)[C@H](NC(=O)[C@H](C)NC(=O)[C@@H](NC(=O)[C@H](CO)NC(=O)[C@H](Cc1ccc(OP(=O)(O)O)cc1)NC(=O)[C@H](CCC(=O)O)NC(=O)[C@@H](NC(=O)[C@@H](NC(=O)[C@H](CO)NC(=O)[C@H](C)NC(=O)[C@@H](NC(=O)[C@@H](N)CO)[C@@H](C)O)[C@@H](C)O)C(C)C)[C@@H](C)O)C(=O)N[C@@H](Cc1c[nH]cn1)C(=O)N[C@@H](CO)C(=O)NCC(N)=O` [STASTVE(pY)STAVHSG] (H-STASTVE[pY]STAVHSG-NH2; N-terminus assumed) was 31. Same read-out and setting: the value for `CC(C)[C@H](NC(=O)[C@@H](NC(=O)[C@H](CO)NC(=O)[C@H](Cc1ccc(OP(=O)(O)O)cc1)NC(=O)[C@H](CCC(=O)O)NC(=O)[C@@H](NC(=O)[C@@H](NC(=O)[C@H](CO)NC(=O)[C@H](C)NC(=O)[C@@H](NC(=O)[C@@H](N)CO)[C@@H](C)O)[C@@H](C)O)C(C)C)[C@@H](C)O)C(=O)N[C@@H](C)C(=O)N[C@@H](Cc1c[nH]cn1)C(=O)N[C@@H](CO)C(=O)NCC(N)=O` [STASTVE(pY)STVAHSG] (H-STASTVE[pY]STVAHSG-NH2; N-terminus assumed) was 10; that for `CC(C)[C@H](NC(=O)[C@@H](NC(=O)[C@@H](NC(=O)[C@H](CO)NC(=O)[C@H](Cc1ccc(OP(=O)(O)O)cc1)NC(=O)[C@H](CCC(=O)O)NC(=O)[C@@H](NC(=O)[C@@H](NC(=O)[C@H](CO)NC(=O)[C@H](C)NC(=O)[C@@H](NC(=O)[C@@H](N)CO)[C@@H](C)O)[C@@H](C)O)C(C)C)[C@@H](C)O)C(C)C)C(=O)N[C@@H](C)C(=O)N[C@@H](CO)C(=O)NCC(N)=O` [STASTVE(pY)STVVASG] (H-STASTVE[pY]STVVASG-NH2; N-terminus assumed) was 7.0; that for `CC(C)[C@H](NC(=O)[C@@H](NC(=O)[C@@H](NC(=O)[C@H](CO)NC(=O)[C@H](Cc1ccc(OP(=O)(O)O)cc1)NC(=O)[C@H](CCC(=O)O)NC(=O)[C@@H](NC(=O)[C@@H](NC(=O)[C@H](CO)NC(=O)[C@H](C)NC(=O)[C@@H](NC(=O)[C@@H](N)CO)[C@@H](C)O)[C@@H](C)O)C(C)C)[C@@H](C)O)C(C)C)C(=O)N[C@@H](Cc1c[nH]cn1)C(=O)N[C@@H](CO)C(N)=O` [STASTVE(pY)STVVHS] was 0.55. For `CC(C)[C@H](NC(=O)[C@@H](NC(=O)[C@@H](NC(=O)[C@H](CO)NC(=O)[C@H](Cc1ccc(OP(=O)(O)O)cc1)NC(=O)[C@H](CCC(=O)O)NC(=O)[C@@H](NC(=O)[C@@H](NC(=O)[C@H](CO)NC(=O)[C@H](C)NC(=O)[C@@H](NC(=O)[C@@H](N)CO)[C@@H](C)O)[C@@H](C)O)C(C)C)[C@@H](C)O)C(C)C)C(=O)N[C@@H](Cc1c[nH]cn1)C(N)=O` [STASTVE(pY)STVVH] (H-STASTVE[pY]STVVH-NH2; N-terminus assumed), the “IC50 analogue/IC50 wild-type” value was 0.70.

For `CC(C)[C@H](NC(=O)[C@@H](NC(=O)[C@@H](NC(=O)[C@H](CO)NC(=O)[C@H](Cc1ccc(OP(=O)(O)O)cc1)NC(=O)[C@H](CCC(=O)O)NC(=O)[C@@H](NC(=O)[C@@H](NC(=O)[C@H](CO)NC(=O)[C@H](C)NC(=O)[C@@H](NC(=O)[C@@H](N)CO)[C@@H](C)O)[C@@H](C)O)C(C)C)[C@@H](C)O)C(C)C)C(N)=O` [STASTVE(pY)STVV] (H-STASTVE[pY]STVV-NH2; N-terminus assumed), the “IC50 analogue/IC50 wild-type” value turned out to be 10.

The target of a further assay is T2, SOCS-3 (recombinant, His-tagged). Nature of the assay: competition, SPR.
Conditions: not given
Consider B1, for which the IC50 worked out at 1100 nM. On the same count and under the same terms, the value for B2 was 970 nM; that for B3 was 770 nM; that for B4 was 120 nM.

For the molecule B5, the IC50 worked out at 550 nM. Same read-out and setting: the value for B6 was 9600 nM.
